Laboratory results: patent US7371775B2, “7-carboxymethyloxy-3′,4′,5-trimethoxy flavone monohydrate, the preparation method and uses thereof” (Dong-A Pharmaceuticals Co., Ltd, priority 2003, dated 2008)
Read-outs that look alike come from different tables or passages of the source.

What was measured:
[1] = Hygroscopicity test: weight changes at 25° C., 75% relative humidity; format: physicochemical
Protocol: 7-carboxymethyloxy-3′,4′,5-trimethoxy flavone.monohydrate prepared in the above example 1 or example 2 was exactly measured by using a weighing bottle (6 cm in diameter). 1 g of the 7-carboxymethyloxy-3′,4′,5-trimethoxy flavone.monohydrate was prepared as a sample. The sample was kept in a vessel in which temperature was set; at 25° C. and 75% relative humidity was maintained. Weight changes of the sample were measured after 2, 4, and 6 hours and on the first day, on the 3rd day, and on the 6th day. The amount of weight change was calculated as percentage to the starting weight of the sample and the results are shown in Table 1.
Weight changes of 7-carboxymethyloxy-3′,4′,5-trimethoxy flavone.anhydride prepared in the comparative example were also measured by the same method as mentioned above, and the results are shown in Table 1.

[2] = Test of conversion of ethanol solvate into monohydrate: weight changes at 25° C., 75% relative humidity; format: physicochemical
Protocol: 7-carboxymethyloxy-3′,4′,5-trimethoxy flavone.monohydrate prepared in the above example 1 or example 2 was measured by using a weighing bottle (6 cm in diameter). 1 g of the 7-carboxymethyloxy-3′,4′,5-trimethoxy flavone.monohydrate was prepared as a sample. The sample was kept in a receptacle in which temperature was set at 25° C. and 75% relative humidity. On the let, 1st, 2nd, 3rd and 6th day, the weight of samples were measured.
Weight changes of 7-carboxymethyloxy-3′,4′,5-trimethoxy flavone.ethanol solvate prepared in the above example 3 were also investigated by the same method as mentioned above, and the results are shown in Table 2.

[3] = test system: gastric mucosal damage induced by ethanolic-HCl; experiment: Gastric mucosal damaged model induced by ethanolic-HCl (ulcer index); format: in vivo, SD male rats; details: rats, oral; for ED50: Rattus norvegicus, 1 hour before 150 mM HCl-80% ethanol, ulcer index
Protocol: SD male rats (250-350 g) were fasted for 24 hours. The compound of the present invention was orally administered in suspension of 5% HPMC, and after 1 hour, 1.5 ml of 150 mM HCl-80% ethanol was orally administered. After 1 hour, the rats were sacrificed and the stomachs were extracted to measure ulcer index. The ulcer index was shown by the area (mm^2) of hemorrhage lesion (Mizui, T, et al., Jpn. J. Pharmacol. 1983, 33: 939).
Rebamipide [2-(4-chlorobenzoylamino)-3-(2-(1H)-quinolinone-4-yl)propanonic acid] (Trade Name: Mucosta) was used as a control medicine.

[4] = test system: TNBS-induced colitis model; experiment: Model of inflammatory bowel diseases induced with TNBS (lesion score); format: in vivo, male SD rats
Protocol: The modified method of Shibata et al. (Dig. Endosc. 1993, 5: 13) was used. 7 week-old male SD rats (CRJ) were fasted for a day, and the rats were put under anesthesia and canula (diameter 3 mm) was inserted into the anus to the depth of 8 cm. 25 mg/ml of TNBS (Trinitrobenzene sulfonic acid) dissolved in 50% ethanol solution was injected to each rat and the rats were positioned at feature of tail up for 1 minute. The solution flowing out was removed and the rats were once washed with 1.5 ml of saline solution. After colitis was induced, the compound of the present invention was administered orally or rectally from the next day of inducing to the 6th day. For control medicine, sulfasalazine […] was used for oral administration and prednisolone was used for rectal administration. And for control group, 5% HPMC was administered. On the 7th day of experiment, each group of the rats was put under ether anesthesia for autopsy. The colon was extracted. After 1% formalin solution was injected into the cavity of the extracted colon to inflate, the both ends of it were bonded with each other, which was then fixed in 1% formalin solution for 2 hours. The all-fixed colon was cut to lengthy direction and washed to remove surrounding fat tissues and connective fissaes. Cecum was removed and the weight of the colon and the rectum was measured. The area of ulcer lesion and inflammatory region were measured to mark scores according to the criterion. Then they were fixed in 10% neutral formalin solution, and the tissue examination of lesion site was performed by a general method to mark scores according to criterion.
Clinical symptoms: Daily, clinical symptoms and survival of the animals were observed. The weight of animals was measured at the beginning day, the 3rd day and the 8th day of the experiment.
Observation with naked eye: The number and the width of the ulcer and lesion area formed in the large intestine were measured and recorded. By using modified Wallace's method (Can. J. Physiol. Pharmacol., 1988, 66: 422), lesion examined with the naked eye was scored and the average value of each group was compared. The standard of lesion scores as criterion of the damage of the colon by Wallace's method […] is as follows.
(0: normal, non-damaged, 1: congestion without ulcer, 2: congestion and thickening of intestinal wall without ulcer, 3: an ulcer lesion without thickening of intestinal wall, 4: more than two ulcerous/inflammatory lesion, 5: more than two ulcerous/inflammatory lesion or the length of ulcerous/inflammatory lesion is more than 1 cm, 6-10: when the length of lesion is over 2 cm, one point increases every time 1 cm of the length of ulcerous/inflammatory increases, for example: when the ulcer length is 3 cm, the point is 7)
Pathological tissue examination: The colon was trimmed at 3 cm interval from the rectum to the cecum, including the site of lesion examined with the naked eye, to make at least 4 specimens per an individual. Pathological tissue examination on the specimens was performed and the results were scored by modified method of Moyama (Ann. Clin. Lab. Sci., 1990, 20: 420). And the highest score was regarded as the score of an individual. When the lesion cannot be examined with the naked eye, the other specimen having lesion was trimmed, at 3 cm interval, from another individual.

[5] = listed as 7-carboxymethyloxy-3′,4′,5-trimethoxy flavone.monohydrate

SMILES | Weight changes according to the time lapse (%) ([1]; 0 h) | Weight changes according to the time lapse (%) ([1]; 2 h) | Weight changes according to the time lapse (%) ([1]; 4 h) | Weight changes according to the time lapse (%) ([1]; 6 h) | Weight changes according to the time lapse (%) ([1]; 1 day) | Weight changes according to the time lapse (%) ([1]; 3 day) | Weight changes according to the time lapse (%) ([1]; 6 day) | Weight changes according to the time lapse (%) ([2]; 0 day) | Weight changes according to the time lapse (%) ([2]; 1 day) | Weight changes according to the time lapse (%) ([2]; 2 day) | Weight changes according to the time lapse (%) ([2]; 3 day) | Weight changes according to the time lapse (%) ([2]; 6 day) | ED50 [3] | other results
C[C@]12C=CC(=O)C=C1CC[C@@H]1[C@@H]2[C@@H](O)C[C@@]2(C)[C@H]1CC[C@]2(O)C(=O)CO [Prednisolone, reference compound] |  |  |  |  |  |  |  |  |  |  |  |  |  | Lesion score ([4]; rectally administered, 1 mg/kg, control 5% HPMC 5.3): 4.8
O=C(NC(Cc1cc(=O)[nH]c2ccccc12)C(=O)O)c1ccc(Cl)cc1 (centres unmarked) [Rebamipide, 2-(4-chlorobenzoylamino)-3-(2-(1H)-quinolinone-4-yl)propanonic acid, reference compound] |  |  |  |  |  |  |  |  |  |  |  |  | 44.2 mg/kg | 
O=C(O)c1cc(/N=N/c2ccc(S(=O)(=O)Nc3ccccn3)cc2)ccc1O [Sulfasalazine, reference compound] |  |  |  |  |  |  |  |  |  |  |  |  |  | Lesion score ([4]; orally administered, 100 mg/kg p.o, control 5% HPMC 9.0): 7.7

More lines, main results first:

Weight changes according to the time lapse (%) ([1]; 0 h) | Weight changes according to the time lapse (%) ([1]; 2 h) | Weight changes according to the time lapse (%) ([1]; 4 h) | Weight changes according to the time lapse (%) ([1]; 6 h) | Weight changes according to the time lapse (%) ([1]; 1 day) | Weight changes according to the time lapse (%) ([1]; 3 day) | Weight changes according to the time lapse (%) ([1]; 6 day) | Weight changes according to the time lapse (%) ([2]; 0 day) | Weight changes according to the time lapse (%) ([2]; 1 day) | Weight changes according to the time lapse (%) ([2]; 2 day) | Weight changes according to the time lapse (%) ([2]; 3 day) | Weight changes according to the time lapse (%) ([2]; 6 day) | SMILES | ED50 [3] | other results
0% | +3.4% | +4.7% | +4.7% | +4.6% | +4.5% | +4.6% |  |  |  |  |  | COc1ccc(-c2cc(=O)c3c(OC)cc(OCC(=O)O)cc3o2)cc1OC [Anhydride, reference compound] |  | Weight changes according to the time lapse (%) ([1]; 2 h, listed as 7-carboxymethyloxy-3′,4′,5-trimethoxy flavone.anhydride): 3.4%; weight increase (average) ([1]; from the 4th hour): 4.6%
 |  |  |  |  |  |  | 0% | −4.1% | −6.5% | −6.5% | −6.5% | COc1ccc(-c2cc(=O)c3c(OC)cc(OCC(=O)O)cc3o2)cc1OC [Ethanol solvate, 7-carboxymethyloxy-3′,4′,5-trimethoxy flavone.ethanol solvate] |  | weight change / conversion (in words) [2]: converted into monohydrate; weight decrease (average) ([2]; after one day): 4.1%; weight decrease (average) ([2]; after two days, constant thereafter): 6.5%
0% | −0.2% | −0.3% | +0.2% | −0.3% | +0.3% | +0.3% | 0% | −0.3% | +0.3% | +0.3% | +0.3% | COc1ccc(-c2cc(=O)c3c(OC)cc(OCC(=O)O)cc3o2)cc1OC [Monohydrate, 7-carboxymethyloxy-3′,4′,5-trimethoxy flavone.monohydrate] | 0.33 mg/kg | weight change / hygroscopicity (in words) [1, 5]: did not show any weight change; weight change / hygroscopicity (in words) ([1]; listed as monohydrate): no weight change; weight change / conversion (in words) [2, 5]: did not show any weight change; protecting effect on the damage of gastric mucosa relative to Rebamipide ([3]; ratio of ED50): at least 100 times; effect on the TNBS-induced inflammatory colitis model (in words) ([4]; oral and rectal administration): showed inhibiting effect; Lesion score ([4]; orally administered, 0.3 mg/kg p.o, control 5% HPMC 9.0): 7.5; Lesion score ([4]; orally administered, 3 mg/kg p.o, control 5% HPMC 9.0): 5.9; Lesion score ([4]; rectally administered, 0.3 mg/kg, control 5% HPMC 5.3): 2.0
